Experiments:
[1] = In vitro serum stability; assay type: in vitro ADME; conditions: 100% human serum; 100% male human serum, not heat inactivated, 37°C; 10.0 μL of 1.0 mg/mL peptide in 590 μL serum; samples 0-6 h, acetonitrile/0.1% TFA quench, RP-HPLC (C4) peak area; triplicate
Method: The stability of the synthetic analogue was measured against native H2 relaxin in human serum. The purchased serum was not heat inactivated in order to retain as much of its proteolytic enzymic activity as possible. The peptides tested were normalized to a final concentration of 1.0 mg/mL with deionized water, and 10.0 μL of peptides was added to 590 μL 100% human serum. After addition of peptide into the serum, 50 μL of samples was removed and quenched with 250 μL of ice-cold acetonitrile/0.1% TFA. The solution was then spun down with a benchtop centrifuge at 13,500 rpm (Eppendorf Centrifuge 5804R, Melbourne, Australia) for 15 mins at 4°C to pellet the larger, precipitated serum proteins. The remaining peptide/serum solution was placed immediately into 37°C incubator. Degradation of peptides was monitored with manual RP-HPLC injections of supernatant using a Phenomenex Aeris Widepore 3.6 μm C4 analytical column (pore size, 100 Å; particle size 4.6 × 250 mm), in a stabilized gradient mode with eluent A: 0.1% aq TFA and eluant B: 0.1% TFA in acetonitrile. Samples were taken at time points 0.5, 1.0, 1.5, 2.0, 2.5, 3, 4, 5, and 6 h. […] Nonspecific peptide degradation was measured by peptide degradation in serum at 0 h. […] GraphPad Prism 5 was used to analyze the peptide degradation in serum which was expressed as the mean ratio ± S.E.M. and Microsoft Excel was used to graph all data. […]

[2] = molecular target: T1, human RXFP2 (Homo sapiens, UniProt Q8WXD0); assay: cAMP reporter gene (pCRE β-galactosidase) assay in RXFP2 expressing HEK-293T cells; assay type: cell-based; conditions: HEK-293T cells expressing RXFP2, pCRE β-galactosidase reporter, 6 h at 37°C; at least three independent experiments in triplicate
T1 construct: expressed in transfected cells; host or cells: HEK-293T
Method: The influence of cAMP signaling by synthetic analogues in HEK-293T cells expressing either human RXFP1 or RXFP2 receptors was assessed using cAMP reporter gene assay as described previously. Briefly, HEK-293T cotransfected with response element pCRE β-galactosidase reporter plasmid were plated out in Corning Cell BIND 96-well plate at 50 000 cells per well per 200 μL. 24 h later, cotransfected cells were treated with increasing concentrations of H2 relaxin analogues in parallel with native H2 relaxin or human INSL3. After 6 h incubation at 37°C, cell media were aspirated and cells were frozen at −80°C overnight. A β-galactosidase colorimetric assay measuring absorbance at 570 nm on Benchmark Plus microplate spectrophotometer (Bio-Rad, Gladesville, Australia) was then used to measure relative cAMP responses. Each concentration point was measured in triplicate and each experiment performed independently at least three times. Ligand-induced stimulation of cAMP was expressed as a percentage of the maximum H2 relaxin response for RXFP1 cells or human INSL3 for RXFP2 cells. GraphPad Prism 5 was used to analyze the cAMP activity assay which was expressed as the mean ± S.E.M. Statistical analysis was conducted using one-way ANOVA with Newman-Keuls post hoc analysis.

[3] = cited from earlier work
Method: Nearly 9 decades since its discovery, the pleotropic peptide H2 relaxin recently completed a successful Phase III clinical trial for the treatment of acute heart failure. Despite this important success, the short in vivo half-life of the peptide (10 mins) necessitates its continuous intravenous infusion for optimum activity. As the in vivo half-life of a peptide or protein is affected by both its degradation by enzymes and renal clearance, it can be improved by, for example, conjugation with large MW compounds such as PEG or by polymerization/aggregation ...

T1 sequence (Q8WXD0 whole entry): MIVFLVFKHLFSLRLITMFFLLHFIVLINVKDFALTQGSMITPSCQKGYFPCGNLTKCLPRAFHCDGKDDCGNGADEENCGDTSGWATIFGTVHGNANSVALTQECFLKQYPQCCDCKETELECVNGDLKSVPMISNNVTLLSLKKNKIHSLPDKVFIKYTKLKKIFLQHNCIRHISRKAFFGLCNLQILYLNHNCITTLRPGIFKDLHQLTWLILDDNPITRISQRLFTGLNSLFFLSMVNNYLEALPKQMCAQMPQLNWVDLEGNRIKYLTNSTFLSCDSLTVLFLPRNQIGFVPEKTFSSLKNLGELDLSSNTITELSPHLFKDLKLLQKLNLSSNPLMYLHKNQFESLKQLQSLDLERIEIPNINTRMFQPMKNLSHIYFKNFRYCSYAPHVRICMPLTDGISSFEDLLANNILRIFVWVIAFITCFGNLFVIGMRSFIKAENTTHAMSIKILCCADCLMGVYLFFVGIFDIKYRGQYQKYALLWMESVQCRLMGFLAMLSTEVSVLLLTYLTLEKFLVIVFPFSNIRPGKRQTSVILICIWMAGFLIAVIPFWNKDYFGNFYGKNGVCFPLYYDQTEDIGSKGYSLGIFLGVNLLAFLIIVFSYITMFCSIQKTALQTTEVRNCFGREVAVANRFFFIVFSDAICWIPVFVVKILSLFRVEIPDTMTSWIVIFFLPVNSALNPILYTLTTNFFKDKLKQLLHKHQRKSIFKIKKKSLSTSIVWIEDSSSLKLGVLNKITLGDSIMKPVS

Molecule: CC[C@H](C)[C@@H]1NC(=O)[C@H](C)NC(=O)[C@H](CC(C)C)NC(=O)[C@H](CCC(N)=O)NC(=O)[C@H](C)NC(=O)[C@H](CCCNC(=N)N)NC(=O)[C@H](C(C)C)NC(=O)[C@H](CC(C)C)NC(=O)[C@H](CCC(=O)O)NC(=O)[C@H](CCCNC(=N)N)NC(=O)CNC(=O)[C@@H](NC(=O)[C@H](CC(C)C)NC(=O)[C@H](CCCCN)NC(=O)[C@@H](NC(=O)[C@@H](NC(=O)[C@H](CCC(=O)O)NC(=O)[C@H](CCC(=O)O)NC(=O)[C@H](CCSC)NC(=O)[C@H](Cc2c[nH]c3ccccc23)NC(=O)[C@H](CO)NC(=O)[C@H](CC(=O)O)NC(=O)[C@@H](N)Cc2cn(CCOCCOCCOCCOCCOCCOCCOCCn3cc(C[C@H](N)C(=O)N[C@@H](CC(=O)O)C(=O)N[C@@H](CO)C(=O)N[C@@H](Cc4c[nH]c5ccccc45)C(=O)N[C@@H](CCSC)C(=O)N[C@@H](CCC(=O)O)C(=O)N[C@@H](CCC(=O)O)C(=O)N[C@H](C(=O)N[C@H](C(=O)N[C@@H](CCCCN)C(=O)N[C@@H](CC(C)C)C(=O)N[C@H]4CSSC[C@@H]5NC(=O)[C@@H](NC(=O)[C@H](CCCCN)NC(=O)[C@H](CC(N)=O)NC(=O)[C@H](C)NC(=O)[C@H](CC(C)C)NC(=O)[C@H](C)NC(=O)[C@H](CO)NC(=O)[C@H](Cc6ccc(O)cc6)NC(=O)[C@H](CC(C)C)NC(=O)[C@@H]6CCC(=O)N6)CSSC[C@H](NC(=O)CNC(=O)[C@H](C(C)C)NC(=O)[C@H](Cc6c[nH]cn6)NC5=O)C(=O)N[C@@H]([C@@H](C)O)C(=O)N[C@@H](CCCCN)C(=O)N[C@@H](CCCNC(=N)N)C(=O)N[C@@H](CO)C(=O)N[C@@H](CC(C)C)C(=O)N[C@@H](C)C(=O)N[C@@H](CCCNC(=N)N)C(=O)N[C@@H](Cc5ccccc5)C(=O)N[C@H](C(N)=O)CSSC[C@@H](C(=O)NCC(=O)N[C@@H](CCSC)C(=O)N[C@@H](CO)C(=O)N[C@H](C(=O)N[C@@H](Cc5c[nH]c6ccccc56)C(=O)N[C@@H](CO)C(N)=O)[C@@H](C)O)NC(=O)[C@H]([C@@H](C)CC)NC(=O)[C@H](C)NC(=O)[C@H](CC(C)C)NC(=O)[C@H](CCC(N)=O)NC(=O)[C@H](C)NC(=O)[C@H](CCCNC(=N)N)NC(=O)[C@H](C(C)C)NC(=O)[C@H](CC(C)C)NC(=O)[C@H](CCC(=O)O)NC(=O)[C@H](CCCNC(=N)N)NC(=O)CNC4=O)[C@@H](C)CC)C(C)C)nn3)nn2)C(C)C)[C@@H](C)CC)CSSC[C@@H]2NC(=O)[C@@H](NC(=O)[C@H](CCCCN)NC(=O)[C@H](CC(N)=O)NC(=O)[C@H](C)NC(=O)[C@H](CC(C)C)NC(=O)[C@H](C)NC(=O)[C@H](CO)NC(=O)[C@H](Cc3ccc(O)cc3)NC(=O)[C@H](CC(C)C)NC(=O)[C@@H]3CCC(=O)N3)CSSC[C@H](NC(=O)CNC(=O)[C@H](C(C)C)NC(=O)[C@H](Cc3c[nH]cn3)NC2=O)C(=O)N[C@@H]([C@@H](C)O)C(=O)N[C@@H](CCCCN)C(=O)N[C@@H](CCCNC(=N)N)C(=O)N[C@@H](CO)C(=O)N[C@@H](CC(C)C)C(=O)N[C@@H](C)C(=O)N[C@@H](CCCNC(=N)N)C(=O)N[C@@H](Cc2ccccc2)C(=O)N[C@H](C(N)=O)CSSC[C@@H](C(=O)NCC(=O)N[C@@H](CCSC)C(=O)N[C@@H](CO)C(=O)N[C@H](C(=O)N[C@@H](Cc2c[nH]c3ccccc23)C(=O)N[C@@H](CO)C(N)=O)[C@@H](C)O)NC1=O [H2 (PEG)7 H2 dimer]
- half-life at 16.7 µg/mL [1]: 2.52 h
- cAMP activation at RXFP2 compared with H2 relaxin [2]: significantly weaker activation propensity

Molecule: dimeric erythropoietin: dimeric erythropoietin formed by chemical crosslinking of the monomer
- activity in vivo relative to monomer [3]: 26 fold
- plasma half-life in rabbits [3]: more than 24 h

Molecule: erythropoietin monomer: erythropoietin monomer
- plasma half-life in rabbits [3]: 4 h
